Measurements as given in PubChem BioAssay (NCI).
“And” between values parts separate entries of the source, which are not always exact repeats. Identical values can stand only once.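 96-well plates; 48 h exposure; 5 concentrations. Endpoints by linear interpolation between flanking doses. Not reached: highest tested concentration assigned. At the GI50, growth is halved. TGI marks complete inhibition of growth.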

Assays:
Experiment in all cases: NCI tumour cell line growth inhibition, 48 h
786-0 renal = system: 786-0 renal
CCRF-CEM leukemia = system: CCRF-CEM leukemia
DU-145 prostate = system: DU-145 prostate
EKVX NSCLC = system: EKVX NSCLC
LOX IMVI melanoma = system: LOX IMVI melanoma
SF-295 CNS = system: SF-295 CNS
SK-OV-3 ovarian = system: SK-OV-3 ovarian
SNB-19 CNS = system: SNB-19 CNS
SW-620 colon = system: SW-620 colon
RXF 393 renal = system: RXF 393 renal

Structure (SMILES)	GI50 (786-0 renal)	TGI (786-0 renal)	GI50 (CCRF-CEM leukemia)	TGI (CCRF-CEM leukemia)	GI50 (DU-145 prostate)	TGI (DU-145 prostate)	GI50 (EKVX NSCLC)	TGI (EKVX NSCLC)	GI50 (LOX IMVI melanoma)	TGI (LOX IMVI melanoma)	GI50 (SF-295 CNS)	GI50 (SK-OV-3 ovarian)	TGI (SK-OV-3 ovarian)	GI50 (SNB-19 CNS)	TGI (SNB-19 CNS)	GI50 (SW-620 colon)	TGI (SW-620 colon)	TGI (RXF 393 renal)	TGI (SF-295 CNS)	GI50 (RXF 393 renal)
COC(=O)C12CC(NC(=O)c3csc([C@@H](C[C@H](C(C)C)N(C)C(=O)[C@@H](NC(=O)[C@H]4CCCCN4C)C(C)C)OC(C)=O)n3)(C1)C2	0.005 µM and 0.00333 µM	> 33.3 µM	0.000518 µM and 0.00333 µM	> 33.3 µM	0.00165 µM and 0.00333 µM	> 33.3 µM	0.018 µM and 0.00426 µM	> 33.3 µM	0.00217 µM and 0.00333 µM	> 33.3 µM	0.00454 µM	0.00639 µM and 0.00333 µM	> 33.3 µM	0.0022 µM and 0.00333 µM	> 33.3 µM	0.000535 µM and 0.00333 µM	> 33.3 µM	–	–	–
C=CCN1C(=O)C/C(=C2/CCC(=O)N2CC=C)C1=O	–	> 100 µM	–	> 100 µM	–	–	–	> 100 µM	–	> 100 µM	–	–	> 100 µM	–	> 100 µM	–	> 100 µM	> 100 µM	> 100 µM	–
Cn1cc(C2=C(c3cn(C)c4cc(Cl)ccc34)C(=O)NC2=O)c2ccccc21	0.203 µM	> 20.8 µM	0.093 µM	> 25 µM	0.119 µM	–	–	–	0.198 µM	> 25 µM	0.093 µM	0.101 µM	> 25 µM	0.145 µM	> 25 µM	0.1 µM	> 25 µM	–	> 25 µM	–
CCc1cc(Nc2nccc(-c3c(-c4ccc(OC)c(C(=O)Nc5c(F)cccc5F)c4)nc4ccccn34)n2)c(OC)cc1N1CCC(N2CCN(S(C)(=O)=O)CC2)CC1	> 100 µM	> 100 µM	–	–	> 100 µM	> 100 µM	> 100 µM	> 100 µM	> 100 µM	> 100 µM	> 100 µM	> 100 µM	> 100 µM	> 56.6 µM	> 100 µM	> 100 µM	> 100 µM	> 100 µM	> 100 µM	> 47 µM
Cc1ccc(S(=O)(=O)N/N=C/CN2C(=O)c3ccccc3C2=O)cc1	–	> 100 µM	–	> 100 µM	–	–	–	> 100 µM	–	> 100 µM	–	–	–	–	> 100 µM	–	> 100 µM	–	> 100 µM	–
O=C(/C=C/c1ccc(OCCCOc2ccc(/C=C/C(=O)c3ccc(Cl)cc3)cc2)cc1)c1ccc(Cl)cc1	–	> 100 µM	–	> 100 µM	–	–	–	> 100 µM	–	> 100 µM	–	–	> 100 µM	–	> 100 µM	–	> 100 µM	> 100 µM	> 100 µM	–
CCc1cc2c(c3[nH]ccc13)[C@@H](C)C[C@H]2C	–	28.2 µM	–	43.4 µM	–	–	–	44.6 µM	–	25.3 µM	–	–	54.9 µM	–	–	–	41 µM	28.7 µM	35.2 µM	–
CC(C(=O)C(C)O[Si](c1ccccc1)(c1ccccc1)C(C)(C)C)=P(c1ccccc1)(c1ccccc1)c1ccccc1 (centres undefined)	–	15.4 µM	–	15.8 µM	–	–	–	29.2 µM	–	11.1 µM	–	–	6.81 µM	–	14.5 µM	–	15.4 µM	–	10.3 µM	–
COc1cccc(C2N3CCCCC3[C@@H]3c4[nH]c5ccccc5c4CCN23)c1OC (some centres undefined)	–	32.4 µM	–	35.4 µM	–	–	–	32 µM	–	–	–	–	31.4 µM	–	24.3 µM	–	33.4 µM	27.9 µM	31.6 µM	–
